The text below walks through data of patent US7291641B2, “Derivatives of heterocycles with 5 members, their preparation and their use as medicaments” (Societe de Conseils de Recherches et d'Applications …, priority 1999, dated 2007).

Structures are written as SMILES. Where a name gives a salt, the structure may show the parent alone.

The melting point is the temperature, or range, at which the solid turns liquid. `CCCCCCC(NCc1ccccc1)c1nc(-c2ccc(Cl)c(Cl)c2)c[nH]1` (racemic) [Example 77, (R,S)-N-benzyl-1-[4-(3,4-dichlorophenyl)-1H-imidazol-2-yl]-1-heptanamine] yielded a melting point of 192 to 194 °C.

`NC(Cc1c[nH]c2ccc(F)cc12)c1nc(-c2ccc(F)cc2)c[nH]1` (racemic) (as salt: hydrochloride) [Example 253, (R,S)-2-(5-fluoro-1H-indol-3-yl)-1-[4-(4-fluorophenyl)-1H-imidazol-2-yl]ethylamine] showed a melting point of 220 to 222 °C. As for `Fc1ccc(-c2c[nH]c(C(NC3CCC3)C3CCCC3)n2)cc1` (racemic) [Example 274, (R,S)-N-{cyclopentyl[4-(4-fluorophenyl)-1H-imidazol-2-yl]methyl}cyclobutanamine], the melting point lay within 146 to 148 °C.

Take `CN(Cc1nc(-c2ccc(-c3ccccc3)cc2)c[nH]1)C(=O)OC(C)(C)C` [Example 149, 4-(2-{[(tert-butoxycarbonyl)(methyl)amino]methyl}-1H-imidazol-4-yl)-1,1′-biphenyl]: the melting point lay within 72 to 74 °C. As to `FC(F)(F)c1cccc(-c2c[nH]c([C@@H](NCC3CCCCC3)C3CCCCC3)n2)c1` [Example 305, (S)-1-cyclohexyl-N-(cyclohexylmethyl)-1-{4-[3-(trifluoromethyl)-phenyl]-1H-imidazol-2-yl}methanamine], the melting point was 143.9 °C. As for `C[C@@H](N)c1nc(-c2ccccc2)c[nH]1` (as salt: hydrochloride) [Example 219, (1R)-1-(4-phenyl-1H-imidazol-2-yl)ethanamine], the melting point fell in the range of 178 to 181 °C. `FC(F)(F)c1cccc(-c2c[nH]c([C@@H](NCC3CCCCC3)C3CCCCC3)n2)c1` (as salt: hydrochloride) [Example 307, (S)-1-cyclohexyl-N-(cyclohexylmethyl)-1-{4-[3-(trifluoromethyl)-phenyl]-1H-imidazol-2-yl}methanamine] showed a melting point of 198 to 200 °C.

The molecule `CCCCCCC(NCCC)c1nc(-c2ccccc2)c[nH]1` (racemic) [Example 224, (R,S)-N-[1-(4-phenyl-1H-imidazol-2-yl)heptyl]-N-propylamine] yielded a melting point of 94 to 98 °C. In turn, `CC(C)(C)OC(=O)N[C@H](CC1CCCCC1)c1nc(-c2ccccc2)c[nH]1` [Example 130, tert-butyl (1R)-2-cyclohexyl-1-(4-phenyl-1H-imidazol-2-yl)ethylcarbamate] yielded a melting point of 184 to 185 °C. In turn, `CCCCOC(=O)NCCc1nc(-c2ccc(-c3ccc(F)c(Cl)c3)cc2)c[nH]1` [Example 447, butyl 2-[4-(3′-chloro-4′-fluoro-1,1′-biphenyl-4-yl)-1H-imidazol-2-yl]ethylcarbamate] had a melting point of 132.4 °C. `CCCCOC(=O)NCCc1nc(-c2ccc(-c3ccc(Cl)c(Cl)c3)cc2)c[nH]1` [Example 448, butyl 2-[4-(3′,4′-dichloro-1,1′-biphenyl-4-yl)-1H-imidazol-2-yl]ethylcarbamate] registered a melting point of 137.5 °C.

As for `NCc1nc(-c2ccccc2)cn1Cc1ccccc1` (as salt: hydrochloride) [Example 107, (1-benzyl-4-phenyl-1H-imidazol-2-yl)methanamine], the melting point lay in the range of 248 to 250 °C. As to `N[C@H](CCc1ccccc1)c1nc(-c2ccc(-c3ccccc3)cc2)c[nH]1` (as salt: hydrochloride) [Example 166, (1R)-1-(4-[1,1′-biphenyl]-4-yl-1H-imidazol-2-yl)-3-phenyl-1-propanamine], the melting point fell in the range of 215 to 218 °C. The molecule `CCCCCCC(NC1CCCCC1)c1nc(-c2ccc(F)cc2)c[nH]1` (stereo not drawn) [Example 38, N-{1-[4-(4-fluorophenyl)-1H-imidazol-2-yl]heptyl}cyclohexanamine] came in with a melting point of 190 to 192 °C. In the case of `CCCCOC(=O)NCCc1nc(-c2ccc(C3CCCCC3)cc2)c[nH]1` [Example 268, butyl 2-[4-(4-cyclohexylphenyl)-1H-imidazol-2-yl]ethylcarbamate], the melting point amounted to 138.4 °C.
